# Measurements from the supplement of paper PMC10307832.
# Tests used:
# Assay in all cases: relative viability (nuclei count vs DMSO), 5 days (fraction); higher = more cells survive
# Shikonin + Palbociclib = compound: CC(C)=CC[C@@H](O)C1=CC(=O)c2c(O)ccc(O)c2C1=O [Shikonin] + CC(=O)c1c(C)c2cnc(Nc3ccc(N4CCNCC4)cn3)nc2n(C2CCCC2)c1=O [Palbociclib] (partner 0.5 µM)
# How it was run: (§1)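 Relative viability is defined as nuclei in treated wells over nuclei in vehicle wells. Duplicate plates were run and medians reported. Lung cancer cell lines in 1536-well plates were dosed by pin tool one day after seeding, with one drug or with a fixed anchor-drug dose plus five library-drug doses (not always all listed) in √10 steps, and nuclei were counted after 5 days.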
# [1] = compound: CC(C)N(CCCNC(=O)Nc1ccc(C(C)(C)C)cc1)C[C@H]1O[C@@H](n2ccc3c(N)ncnc32)[C@H](O)[C@@H]1O + O=C(CCCCCCC(=O)Nc1ccccc1)NO [Vorinostat] (partner 1 µM)
# How it was run: as §1
# Shikonin + Crizotinib = compound: CC(C)=CC[C@@H](O)C1=CC(=O)c2c(O)ccc(O)c2C1=O [Shikonin] + C[C@@H](Oc1cc(-c2cnn(C3CCNCC3)c2)cnc1N)c1c(Cl)ccc(F)c1Cl [Crizotinib] (partner 1 µM)
# How it was run: as §1
# [2] = compound: CC(C)N(CCCNC(=O)Nc1ccc(C(C)(C)C)cc1)C[C@H]1O[C@@H](n2ccc3c(N)ncnc32)[C@H](O)[C@@H]1O + CC(C)C[C@H](NC(=O)[C@H](Cc1ccccc1)NC(=O)c1cnccn1)B(O)O [Bortezomib] (partner 0.002 µM)
# How it was run: as §1
Cell Line,relative viability (Shikonin + Palbociclib; first compound 0.01 µM),relative viability (Shikonin + Palbociclib; first compound 0.1 µM),relative viability (Shikonin + Palbociclib; first compound 0.3162 µM),relative viability (Shikonin + Palbociclib; first compound 1 µM),relative viability ([1]; first compound 0.08 µM),relative viability ([1]; first compound 0.253 µM),relative viability ([1]; first compound 2.53 µM),relative viability ([1]; first compound 8 µM),relative viability (Shikonin + Crizotinib; first compound 0.01 µM),relative viability (Shikonin + Crizotinib; first compound 0.1 µM),relative viability (Shikonin + Crizotinib; first compound 0.3162 µM),relative viability (Shikonin + Crizotinib; first compound 1 µM),relative viability ([2]; first compound 0.08 µM),relative viability ([2]; first compound 0.253 µM),relative viability ([2]; first compound 0.8 µM),relative viability ([2]; first compound 2.53 µM),relative viability ([2]; first compound 8 µM),relative viability ([1]; first compound 0.8 µM)
201T,0.346,0.413,0.331,0.387,0.984,0.975,0.911,0.931,1.01,1.08,1.04,1.08,1.08,1.11,1.03,1.07,1.06,
A549,,,,,,,,,0.748,0.932,0.872,0.705,,,,,,
A-427,0.503,0.545,0.528,0.553,0.839,0.912,0.901,0.9,0.978,1.12,1.03,0.847,0.927,0.973,0.996,1.01,0.967,0.875
ABC-1,0.904,0.592,0.892,0.586,1.19,1.29,1.07,0.919,1.72,1.15,1.13,0.531,0.28,0.249,,0.344,0.325,
BEN,0.47,0.465,0.437,0.54,0.597,0.539,0.606,0.572,0.952,0.974,0.975,0.998,0.934,0.762,0.776,0.662,0.57,0.576
CAL-12T,0.414,0.451,0.403,0.438,0.788,0.76,0.644,0.578,0.941,0.659,0.627,0.589,1.04,0.739,0.907,0.847,0.784,0.965
COR-L23,0.26,0.299,0.306,0.29,0.378,0.431,0.5,0.374,0.735,0.786,0.601,0.689,0.87,0.968,0.464,1.1,0.929,0.462
COR-L 105,0.447,0.388,0.483,0.402,0.893,1.41,0.89,0.818,1.06,0.721,0.763,0.692,0.719,0.537,0.719,0.744,0.75,0.879
Calu-6,,,,,,,,,1.02,0.854,0.912,0.75,1.02,0.999,1.06,1,1.01,
ChaGo-K-1,0.977,1.09,0.968,0.968,0.785,0.827,0.715,0.766,1.07,1.19,1.11,1.21,1.08,0.886,0.87,1.01,1.08,0.756
EBC-1,,,,,,,,,0.165,0.224,0.216,0.201,0.508,0.549,0.486,0.466,0.473,
EKVX,0.404,0.389,0.413,0.366,0.64,0.772,0.62,0.705,1.05,1.2,0.996,1.07,1.06,1.24,1.08,0.993,0.786,0.705
EMC-BAC-2,0.512,0.573,0.538,0.513,0.465,0.416,0.409,0.401,0.771,0.715,0.815,0.866,1,1.12,0.948,0.994,0.904,0.461
EPLC-272H,0.373,0.321,0.336,0.282,0.404,0.439,0.4,0.708,1.03,0.901,0.953,0.865,0.871,0.819,0.397,0.923,0.942,0.664
H3255,0.316,0.333,0.337,0.303,0.743,0.807,0.788,0.477,0.945,1,0.958,0.915,0.867,0.618,0.406,0.638,0.747,0.717
HARA,0.262,0.285,0.248,0.248,0.559,0.511,0.496,0.475,1.18,1.19,1.11,1.21,1.13,1.15,0.604,1.03,1.02,0.529
HCC-15,0.781,0.676,0.817,0.724,0.92,0.806,0.818,0.793,0.89,0.916,0.913,0.928,0.979,1.04,0.773,1,0.943,0.888
HCC-44,0.979,0.991,0.984,1,1.1,1.26,1.1,1.01,0.933,0.86,0.891,0.825,0.902,1.01,0.774,0.991,0.842,1.04
HCC-78,0.459,0.481,0.461,0.413,0.41,0.391,0.42,0.488,0.325,0.388,0.357,0.377,0.488,,0.213,0.305,0.577,0.4

Cell Line,relative viability (Shikonin + Palbociclib; first compound 0.01 µM),relative viability (Shikonin + Palbociclib; first compound 0.1 µM),relative viability (Shikonin + Palbociclib; first compound 0.3162 µM),relative viability (Shikonin + Palbociclib; first compound 1 µM),relative viability ([1]; first compound 0.08 µM),relative viability ([1]; first compound 0.253 µM),relative viability ([1]; first compound 2.53 µM),relative viability ([1]; first compound 8 µM),relative viability (Shikonin + Crizotinib; first compound 0.01 µM),relative viability (Shikonin + Crizotinib; first compound 0.1 µM),relative viability (Shikonin + Crizotinib; first compound 0.3162 µM),relative viability (Shikonin + Crizotinib; first compound 1 µM),relative viability ([2]; first compound 0.08 µM),relative viability ([2]; first compound 0.253 µM),relative viability ([2]; first compound 0.8 µM),relative viability ([2]; first compound 2.53 µM),relative viability ([2]; first compound 8 µM),relative viability ([1]; first compound 0.8 µM)
HCC-366,0.415,0.4,0.316,0.388,0.439,0.303,0.357,0.291,0.745,0.373,0.517,0.561,0.996,0.999,0.948,1.05,1.04,0.182
HCC-827,0.48,0.517,0.518,0.493,0.862,0.903,0.902,0.875,0.939,0.974,0.933,0.935,1.08,0.969,0.668,1.02,0.993,0.579
IA-LM,,,,,0.88,0.761,0.968,0.96,1.06,,1.11,0.667,0.81,0.693,0.752,0.689,0.712,0.909
LK-2,0.772,0.869,0.773,0.664,0.325,0.282,0.315,0.213,0.248,0.212,0.219,0.221,,,,,,0.391
NCI-H358,0.139,0.132,0.131,0.131,0.725,0.629,0.714,0.613,0.699,0.484,0.619,0.63,,,,,,0.721
NCI-H522,1.03,1.28,0.936,1.17,0.771,0.801,0.858,0.82,,,,,,,,,,0.697
NCI-H596,,,,,0.601,0.427,0.674,0.714,1.1,0.884,0.96,0.985,0.997,0.843,0.746,1.05,1.2,0.39
NCI-H1299,,,,,,,,,0.958,1.09,0.965,0.922,1.03,0.987,0.966,1.04,1.04,
NCI-H1395,0.524,0.664,0.596,0.628,0.727,0.58,0.638,0.786,,,,,,,,,,0.427
NCI-H1563,,,,,,,,,0.891,0.845,0.751,0.622,0.844,0.811,0.626,0.873,0.902,
NCI-H1648,0.282,,0.273,0.238,0.466,0.4,0.481,0.64,,,,,,,,,,0.407
NCI-H1703,,,,,,,,,0.873,0.671,0.633,0.512,0.244,0.316,0.273,0.381,0.307,
NCI-H1792,0.717,0.493,0.729,0.7,,,,,1.1,0.796,1.03,1.14,0.932,0.839,0.979,0.945,1.01,
NCI-H1793,0.283,0.321,0.306,0.345,0.617,,0.773,0.574,,,,,,,,,,0.761
NCI-H1944,0.311,0.403,0.321,0.349,0.508,0.48,0.637,0.546,1.12,1.18,1.24,1.22,,,,,,0.484
NCI-H2170,0.392,0.376,0.395,0.422,0.811,0.681,0.83,0.688,1.5,1.07,1.29,1.25,,,,,,0.807
NCI-H2342,0.499,0.465,0.526,0.537,0.708,0.744,0.778,0.775,,,,,,,,,,0.669
SK-MES-1,0.317,0.3,0.295,0.288,1.04,1.13,1.1,1.06,1.11,1.05,1.08,1.11,,,,,,0.867
SW 900,0.563,0.559,0.547,0.542,0.639,0.38,0.562,0.548,,,,,,,,,,
